# Assay results: patent US4927831A, “Spiro-isoquinoline-pyrrolidine tetrones and analogs thereof useful as aldose reductase inhibitors” (American Home Products, priority 1989, dated 1990)
# Where two headings read alike, the source gives them in different places.
# Legend:
# [1] = test system: dulcitol accumulation in the sciatic nerve; experiment: % lowering of dulcitol accumulation in sciatic nerve (N) of galactosemic rats; format: in vivo, Sprague-Dawley; design: key: NS: statistically nonsignificant change; details: 4 days
# From the text: (§1) The aldose reductase inhibiting property of the compounds of this invention and the utilization of the compounds in preventing, diminishing and alleviating diabetic complications are demonstrable in experiments using galactosemic rats, see Dvornik et al., Science, 182, 1146 (1973). Such experiments are exemplified hereinbelow after the listing of the following general comments pertaining to these experiments:
# (§2) (a) Four or more groups of six male rats, 50-70 g, Sprague-Dawley strain, were used. The first group, the control group, was fed a mixture of laboratory chow (rodent Laboratory Chow, Purina) and glucose at 20% (w/w %) concentration. An untreated galactosemic group was fed a similar diet in which galactose was substituted for glucose. The third group was fed a diet prepared by mixing a given amount of the test compound with the galactose containing diet. The concentration of galactose in the diet of the treated groups was the same as that for the untreated galactosemic group.
# (§3) (b) After four days, the animals were killed by euthanization. Both the lens and sciatic nerve were removed, weighed and stored frozen for polyol determination.
# (§4) (c) The polyol determination was performed by a modification of the procedure of M. Kraml and L. Cosyns, Clin. Biochem., 2,373 (1969). Only two minor reagent changes were made: (a) The rinsing mixture was an aqueous 5% (w/v) trichloroacetic acid solution and (b) the stock solution was prepared by dissolving 25 mg of dulcitol in 100 ml of an aqueous trichloroacetic acid solution. [N.B.: For each experiment the average value found in the tissue from rats fed the glucose diet was subtracted from the individual values found in the corresponding tissue in galactose-fed rats to obtain the amount of polyol accumulated.] The aldose reductase inhibiting effects of the compounds of formula (I) were also tested by employing an in vitro testing procedure similar to that described by S. Hayman and J.H. Kinoshita, J. Biol. Chem., 240,877 (1965). In the present case the procedure of Hayman and Kinoshita was modified in that the final chromatography step was omitted in the preparation of the enzyme from bovine lens.
# (§5) The figures under L and N represent the percentage decrease of dulcitol accumulation in the tissues of the lens and sciatic nerve, respectively, for treated rats as compared to untreated rats.
# [2] = test system: dulcitol accumulation in the lens; experiment: % lowering of dulcitol accumulation in lens (L) of galactosemic rats; format: in vivo, Sprague-Dawley; design: key: NS: statistically nonsignificant change; details: 4 days
# From the text: as §1, §2, §3, §4, §5
# aldose reductase = biological target: T1, aldose reductase (Bos taurus, UniProt P16116); experiment: in vitro aldose reductase inhibition (modified Hayman and Kinoshita; enzyme from bovine lens); format: biochemical; details: read-out: % Inhibition IN VITRO
# T1 construct: preparation of the enzyme from bovine lens; from tissue; host or cells: bovine lens
# Experimental: Only two minor reagent changes were made: (a) The rinsing mixture was an aqueous 5% (w/v) trichloroacetic acid solution and (b) the stock solution was prepared by dissolving 25 mg of dulcitol in 100 ml of an aqueous trichloroacetic acid solution. [N.B.: For each experiment the average value found in the tissue from rats fed the glucose diet was subtracted from the individual values found in the corresponding tissue in galactose-fed rats to obtain the amount of polyol accumulated.] […] In the present case the procedure of Hayman and Kinoshita was modified in that the final chromatography step was omitted in the preparation of the enzyme from bovine lens. […] The figures under L and N represent the percentage decrease of dulcitol accumulation in the tissues of the lens and sciatic nerve, respectively, for treated rats as compared to untreated rats.
compound,measurement,setting,value
"O=C1C[C@]2(C(=O)N1)C(=O)N(Cc1ccc(Br)cc1F)C(=O)c1ccccc12 [(S)-(-)-2-[(4-Bromo-2-fluorophenyl)methyl]spiro[isoquinoline-4(1H),3'-pyrrolidine]-1,2',3,5'(2H)-tetrone]","% Lowering Dulcitol Accumulation IN VIVO, N (sciatic nerve)",[1]; 0.5 mg/kg in diet,NS
same,"% Lowering Dulcitol Accumulation IN VIVO, N (sciatic nerve)",[1]; 4.8 mg/kg in diet,83%
same,"% Lowering Dulcitol Accumulation IN VIVO, L (lens)",[2]; 0.5 mg/kg in diet,NS
same,"% Lowering Dulcitol Accumulation IN VIVO, L (lens)",[2]; 4.8 mg/kg in diet,NS
same,inhibition at 10 µM,aldose reductase; 10^-5 M,87%
same,inhibition at 1 µM,aldose reductase; 10^-6 M,51%
"CN1C(=O)c2ccc(Br)cc2C2(CC(=O)NC2=O)C1=O (centres unmarked) [6-Br H CH3, 6-Bromo-2-methylspiro[isoquinoline-4(1H),3'-pyrrolidine]-1,2',3,5'(2H)-tetrone]","% Lowering Dulcitol Accumulation IN VIVO, N (sciatic nerve)",[1]; 1.0 mg/kg in diet,54%
same,"% Lowering Dulcitol Accumulation IN VIVO, L (lens)",[2]; 1.0 mg/kg in diet,NS
same,inhibition at 0.04 µM,aldose reductase; 4 × 10^-8 M,43%
same,inhibition at 10 µM,aldose reductase; 10^-5 M,100%
same,inhibition at 1 µM,aldose reductase; 10^-6 M,100%
same,inhibition at 0.1 µM,aldose reductase; 10^-7 M,85%
"CCCCN1C(=O)c2ccccc2C2(CC(=O)NC2=O)C1=O (centres unmarked) [H H (CH2)3 CH3, 2-Butylspiro[isoquinoline-4(1H),3'-pyrrolidine]-1,2',3,5'(2H)-tetrone]","% Lowering Dulcitol Accumulation IN VIVO, N (sciatic nerve)",[1]; 10.0 mg/kg in diet,NS
same,"% Lowering Dulcitol Accumulation IN VIVO, L (lens)",[2]; 10.0 mg/kg in diet,NS
same,inhibition at 0.04 µM,aldose reductase; 4 × 10^-8 M,19%
same,inhibition at 10 µM,aldose reductase; 10^-5 M,99%
same,inhibition at 0.1 µM,aldose reductase; 10^-7 M,17%
same,inhibition at 1 µM,aldose reductase,86%
"CN1C(=O)c2ccccc2C2(CC(=O)NC2=O)C1=O (centres unmarked) [H H CH3, 2-Methylspiro[isoquinoline-4(1H),3'-pyrrolidine]-1,2',3,5'(2H)-tetrone]","% Lowering Dulcitol Accumulation IN VIVO, N (sciatic nerve)",[1]; 1.0 mg/kg in diet,37.0%
same,"% Lowering Dulcitol Accumulation IN VIVO, N (sciatic nerve)",[1]; 3.0 mg/kg in diet,66.0%
same,"% Lowering Dulcitol Accumulation IN VIVO, N (sciatic nerve)",[1]; 10.0 mg/kg in diet,79.0%
same,"% Lowering Dulcitol Accumulation IN VIVO, N (sciatic nerve)",[1]; 43.0 mg/kg in diet,89.0%
same,"% Lowering Dulcitol Accumulation IN VIVO, L (lens)",[2]; 1.0 mg/kg in diet,15.0%
same,"% Lowering Dulcitol Accumulation IN VIVO, L (lens)",[2]; 3.0 mg/kg in diet,43.0%
same,"% Lowering Dulcitol Accumulation IN VIVO, L (lens)",[2]; 10.0 mg/kg in diet,62.0%
same,"% Lowering Dulcitol Accumulation IN VIVO, L (lens)",[2]; 43.0 mg/kg in diet,86.0%
same,inhibition at 10 µM,aldose reductase; 10^-5 M,95%
same,inhibition at 1 µM,aldose reductase; 10^-6 M,91%
same,inhibition at 0.1 µM,aldose reductase; 10^-7 M,63%
same,inhibition at 0.04 µM,aldose reductase,38%
"CCCN1C(=O)c2ccccc2C2(CC(=O)NC2=O)C1=O (centres unmarked) [H H (CH2)2 CH3, 2-Propylspiro[isoquinoline-4(1H),3'-pyrrolidine]-1,2',3,5'(2H)-tetrone]","% Lowering Dulcitol Accumulation IN VIVO, N (sciatic nerve)",[1]; 11 mg/kg in diet,NS
same,"% Lowering Dulcitol Accumulation IN VIVO, L (lens)",[2]; 11 mg/kg in diet,NS
same,inhibition at 0.04 µM,aldose reductase; 4 × 10^-8 M,8%
same,inhibition at 1 µM,aldose reductase; 10^-6 M,62%
same,inhibition at 0.1 µM,aldose reductase; 10^-7 M,19%
same,inhibition at 10 µM,aldose reductase,94%
"COc1ccc2c(c1)C(=O)N(Cc1ccc(Br)cc1F)C(=O)C21CC(=O)NC1=O (centres unmarked) [[2-[(4-Bromo-2-fluorophenyl)methyl]-7-methoxy]spiro[isoquinoline-4(1H),3'-pyrrolidine]-1,2',3,5'(2H)-tetrone]","% Lowering Dulcitol Accumulation IN VIVO, N (sciatic nerve)",[1]; 25.7 mg/kg in diet,88.1%
same,"% Lowering Dulcitol Accumulation IN VIVO, L (lens)",[2]; 25.7 mg/kg in diet,45.3%
same,inhibition at 0.04 µM,aldose reductase; 4 × 10^-8 M,72%
same,inhibition at 10 µM,aldose reductase; 10^-5 M,97%
same,inhibition at 0.1 µM,aldose reductase; 10^-7 M,90%
same,inhibition at 1 µM,aldose reductase,96%
"O=C1CC2(C(=O)N1)C(=O)N(Cc1ccc(Br)cc1F)C(=O)c1c(F)cccc12 (centres unmarked) [[2-[(4-Bromo-2-fluorophenyl)methyl]-8-fluoro]spiro[isoquinoline-4(1H),3'-pyrrolidine]-1,2',3,5'(2H)-tetrone]","% Lowering Dulcitol Accumulation IN VIVO, N (sciatic nerve)",[1]; 0.5 mg/kg in diet,50.6%
same,"% Lowering Dulcitol Accumulation IN VIVO, N (sciatic nerve)",[1]; 1.0 mg/kg in diet,57.6%
same,"% Lowering Dulcitol Accumulation IN VIVO, L (lens)",[2]; 0.5 mg/kg in diet,NS
same,"% Lowering Dulcitol Accumulation IN VIVO, L (lens)",[2]; 1.0 mg/kg in diet,16.3%
same,inhibition at 0.04 µM,aldose reductase; 4 × 10^-8 M,43%
same,inhibition at 0.1 µM,aldose reductase; 10^-7 M,92%
same,inhibition at 1 µM,aldose reductase,94%
same,inhibition at 10 µM,aldose reductase,96%
"O=C1C[C@]2(C(=O)N1)C(=O)N(Cc1ccc(Br)cc1F)C(=O)c1ccc(F)cc12 [(S)-(-)-[2-[(4-Bromo-2-fluorophenyl)methyl]-6-fluoro]spiro[isoquinoline-4(1H),3'-pyrrolidine]-1,2',3,5'(2H)-tetrone]","% Lowering Dulcitol Accumulation IN VIVO, N (sciatic nerve)",[1]; 0.4 mg/kg in diet,40%
same,"% Lowering Dulcitol Accumulation IN VIVO, N (sciatic nerve)",[1]; 0.8 mg/kg in diet,70%
same,"% Lowering Dulcitol Accumulation IN VIVO, L (lens)",[2]; 0.4 mg/kg in diet,NS
same,"% Lowering Dulcitol Accumulation IN VIVO, L (lens)",[2]; 0.8 mg/kg in diet,21%
same,inhibition at 0.04 µM,aldose reductase,29%
same,inhibition at 0.1 µM,aldose reductase,46%
same,inhibition at 1 µM,aldose reductase,97%
same,inhibition at 10 µM,aldose reductase,98%
"O=C1CC2(C(=O)N1)C(=O)N(Cc1ccc(Br)cc1F)C(=O)c1cc(Cl)ccc12 (centres unmarked) [[2-[(4-Bromo-2-fluorophenyl)methyl]-7-chloro]spiro[isoquinoline-4(1H),3'-pyrrolidine]-1,2',3,5'(2H)-tetrone]","% Lowering Dulcitol Accumulation IN VIVO, N (sciatic nerve)",[1]; 0.6 mg/kg in diet,63%
same,"% Lowering Dulcitol Accumulation IN VIVO, L (lens)",[2]; 0.6 mg/kg in diet,NS
same,inhibition at 0.04 µM,aldose reductase; 4 × 10^-8 M,25%
same,inhibition at 1 µM,aldose reductase; 10^-6 M,92%
same,inhibition at 0.1 µM,aldose reductase; 10^-7 M,42%
same,inhibition at 10 µM,aldose reductase,96%
"O=C1C[C@@]2(C(=O)N1)C(=O)N(Cc1ccc(Br)cc1F)C(=O)c1ccc(F)cc12 [(R)-(+)-[2-[(4-Bromo-2-fluorophenyl)methyl]-6-fluoro]spiro[isoquinoline-4(1H),3'-pyrrolidine]-1,2',3,5'(2H)-tetrone]","% Lowering Dulcitol Accumulation IN VIVO, N (sciatic nerve)",[1]; 0.4 mg/kg in diet,100%
same,"% Lowering Dulcitol Accumulation IN VIVO, N (sciatic nerve)",[1]; 0.8 mg/kg in diet,100%
same,"% Lowering Dulcitol Accumulation IN VIVO, L (lens)",[2]; 0.4 mg/kg in diet,31%
same,"% Lowering Dulcitol Accumulation IN VIVO, L (lens)",[2]; 0.8 mg/kg in diet,26%
same,inhibition at 0.04 µM,aldose reductase,93%
same,inhibition at 0.1 µM,aldose reductase,93%
same,inhibition at 1 µM,aldose reductase,95%
same,inhibition at 10 µM,aldose reductase,99%
"COc1cc2c(cc1Br)C1(CC(=O)NC1=O)C(=O)N(Cc1ccc(Br)cc1F)C2=O (centres unmarked) [[6-Bromo-2-[(4-bromo-2-fluorophenyl)methyl]-7-methoxy]spiro[isoquinoline-4(1H),3'-pyrrolidine]-1,2',3,5'(2H)-tetrone]","% Lowering Dulcitol Accumulation IN VIVO, N (sciatic nerve)",[1]; 0.5 mg/kg in diet,55.2%
same,"% Lowering Dulcitol Accumulation IN VIVO, N (sciatic nerve)",[1]; 26.4 mg/kg in diet,89.5%
same,"% Lowering Dulcitol Accumulation IN VIVO, L (lens)",[2]; 0.5 mg/kg in diet,NS
same,"% Lowering Dulcitol Accumulation IN VIVO, L (lens)",[2]; 26.4 mg/kg in diet,48.8%
same,inhibition at 0.04 µM,aldose reductase; 4 × 10^-8 M,70%
same,inhibition at 10 µM,aldose reductase; 10^-5 M,98%
same,inhibition at 1 µM,aldose reductase; 10^-6 M,97%
same,inhibition at 0.1 µM,aldose reductase; 10^-7 M,88%
"CN1C(=O)c2cc(Cl)ccc2C2(CC(=O)NC2=O)C1=O (centres unmarked) [H 7-Cl CH3, 7-Chloro-2-methylspiro[isoquinoline-4(1H)3'-pyrrolidine]-1,2',3,5'(2H)-tetrone]","% Lowering Dulcitol Accumulation IN VIVO, N (sciatic nerve)",[1]; 3.0 mg/kg in diet,21%
same,"% Lowering Dulcitol Accumulation IN VIVO, L (lens)",[2]; 3.0 mg/kg in diet,14%
same,inhibition at 0.04 µM,aldose reductase; 4 × 10^-8 M,34%
same,inhibition at 10 µM,aldose reductase; 10^-5 M,95%
same,inhibition at 1 µM,aldose reductase; 10^-6 M,92%
same,inhibition at 0.1 µM,aldose reductase; 10^-7 M,61%
